Measured values as given in patent publication US12599608B2, “Methods for treating cardiac valve disease” (The Regents of the University of California, priority 2018, dated 2026).
“Also recorded” adds a separate entry of the source.

Legend:
Format in all cases: cell-based, human
[1] = test system: N1^+/− ECs; experiment: Whole transcriptome RNA-seq of N1^+/− ECs treated with network-correcting molecules; conditions: for repressive effect on cadherin-11 mRNA expression: FIG. 9A; for restoration of the N1-dependent network as a whole: FIGS. 2E, 3A
Description: ECs were lysed and RNA was isolated using the Qiagen RNeasy Micro purification kit. RNA-seq libraries were constructed using the Clontech SMRTer Stranded RNA-seq Library Prep Kit for Illumina per kit protocol. Libraries were analyzed by Agilent Bioanalyzer, normalized to equivalent concentration, pooled, gel purified, and sequenced 75 bp paired-end on an Illumina NextSeq instrument with 10% PhiX.
Sequencing quality was assessed with FASTQC (located on the web by placing “www.” in front of “bioinformatics.babraham.ac.uk/projects/fastqc/”). Reads were aligned to the hg19 (Homo sapiens assembly February 2009) transcriptome and genome using the Spliced Transcripts Alignment to a Reference (STAR) Aligner (Dobin et al., Bioinformatics. 2012; 29:15-21) and differential expression was analyzed using Cuffdiff (Trapnell et al., Nat Biotechnol. 2012; 31:46-53). HOPACH was used for clustering with the correlation metric (van der Laan and Pollard; located on the web by placing “www.” in front of “bioconductor.org/packages/devel/bioc/manuals/hopach/man/hopach.pdf”. GO analyses were completed using GO-Elite and ToppGene (Chen et al., Nucleic Acids Research. 2009; 37:W305-W311; Zambon et al., Bioinformatics. 2012; 28:2209-2210). Network diagrams were generated using NetworkX (Hagberg et al., SciPy. 2008) based on network connections inferred from mRNA-seq gene expression of isogenic N1^+/− compared to WT ECs with colors based on whole transcriptome RNA-seq gene expression of DMSO- vs small molecule-treated WT and N1^+/− ECs.

[2] = test system: N1^+/− iPSC-derived ECs; experiment: Network-based small molecule screen by targeted RNA-seq of 119 genes (KNN and hierarchical clustering); conditions: initial screen, complete agglomeration method
Text: TALEN-engineered isogenic human iPSCs that were either WT (wild-type) or N1^+/− were derived and characterized as detailed in Theodoris et al., Cell. 2015; 160:1072-1086. Isogenic iPSCs (induced pluripotent stem cells) were differentiated into ECs as previously described (Theodoris et al., 2015; White et al., Stem Cells. 2012; 31:92-103). On day 13 of the differentiation process, ECs were greater than 90% double-positive for CD31 (BD #558068) and CD144 (#FAB9381P) by FACS (fluorescence-activated cell sorting) analysis (FIGS. 9G-H). Small molecule experiments (described below) were conducted at day 15 of differentiation.
(§1) Starting on day 15 of differentiation, WT ECs were exposed to 10 μM DMSO (dimethyl sulfoxide) (n=80) while isogenic N1^+/− ECs were exposed to either 10 μM DMSO (n=80) or one of the small molecules from the LOPAC (1280 molecules) (Sigma LO1280) or Sheng Ding (315 molecules) chemical libraries. DMSO or small molecules were renewed with EC media (ScienCell #1001) changes on alternating days until the cells were ultimately collected for analysis on day 21. ECs were imaged using the IN Cell Analyzer on day 21 to evaluate morphology and cell death; wells with extensive cell death were eliminated from final analyses. For validation experiments, promising small molecules identified from the initial screen were applied to N1^+/− ECs in duplicate or triplicate along with controls of DMSO-exposed WT and N1^+/− ECs (n=4 each) using the same process as the initial screen described above.
(§2) ECs were lysed and RNA was isolated using the Qiagen RNeasy 96-well purification kit. RNA was diluted so that it was between the 10 pg-1 ng range accepted by the Cellular Research Precise targeted RNA-seq (RNA sequencing) system. Targeted RNA-seq libraries were prepared as per the Cellular Research Precise protocol (Rev 03092015), which includes both molecule and sample barcoding. The selected 119 target genes (see Table 1) included 3 low-expressing housekeeping genes for normalization (CHMP2A, C1orf43, REEP5) and either predicted central regulatory nodes or peripheral genes positioned within varied regions of the N1 network to permit identification of small molecules that affected central nodes as well as those that may have a synergistic effect in combination due to regulating different aspects of the network. Briefly, RNA was added to the Precise Encoding Plate containing indexed dT primer, dNTPs, and Spike-in mRNA controls and incubated at 65° C. for 3 minutes followed by cooling on ice. A master-mix of RT enzyme, RNase inhibitor, and buffer was then added to the samples, and they were incubated at 42° C. for 30 minutes followed by 80° C. for 5 minutes. Each plate of samples was combined into a single 2 ml tube and purified with AMPureXP beads. N1 PCR master-mix was added and samples were incubated for 94° C. for 2 minutes, followed by 15 cycles of 94° C. for 30 seconds, 55° C. for 3 minutes, and 68° C. for 1 minute, followed by 68° C. for 7 minutes. Samples were purified with AMPureXP beads and N2 PCR master-mix was added. Samples were incubated with the same thermal cycler program as above for 12 cycles. These final libraries were then purified with AMPureXP beads and analyzed for quality and concentration by Agilent Bioanalyzer and Illumina Library Quantification Kit (KAPA Biosystems), respectively. Libraries were normalized to equivalent concentration and pooled for paired-end 100 bp sequencing on an Illumina HiSeq 2500 instrument.
Sequencing data was analyzed using Cellular Research Precise Analysis Pipeline on the SevenBridges platform, which included analyzing sequencing quality with FASTQC, trimming adapters and filtering reads, demultiplexing based on sample barcodes, aligning reads with Bowtie 2, and determining the number of unique molecular indices per gene. Network inference was based on mutual information of gene expression from all DMSO- and small molecule-exposed samples as described in Margolin et al., BMC Bioinformatics. […]

[3] = test system: N1^+/− ECs; experiment: Validation trials of screen candidates by targeted RNA-seq with the trained KNN algorithm; conditions: duplicate or triplicate; one or more replicates classified as WT
Description: as §1, §2
Sequencing data was analyzed using Cellular Research Precise Analysis Pipeline on the SevenBridges platform, which included analyzing sequencing quality with FASTQC, trimming adapters and filtering reads, demultiplexing based on sample barcodes, aligning reads with Bowtie 2, and determining the number of unique molecular indices per gene. Network inference was based on mutual information of gene expression from all DMSO- and small molecule-exposed samples as described in Margolin et al., BMC Bioinformatics. 2006; 7 Suppl 1:S7. Network diagram was generated using NetworkX (Hagberg et al., Exploring Network Structure, Dynamics, and Function using NetworkX. SciPy. 2008) based on network connections inferred from the small molecule screen data as described above with colors based on whole transcriptome RNA-seq gene expression of isogenic N1^+/− compared to WT ECs.
Promising small molecules were identified using either K-nearest neighbor (KNN) or hierarchical clustering algorithms. […]

Structure (SMILES)	repression of genes aberrantly activated in N1-haploinsufficient ECs ([1]; FIG. 2A)	repressive effect on cadherin-11 mRNA expression [1]	restoration of the N1-dependent network as a whole [1]	hierarchical clustering of transcriptional profile of treated N1-haploinsufficient ECs with WT ECs [2]	KNN classification of treated N1^+/− ECs in validation trials [3]	restoration of transcription of genes repressed in N1-haploinsufficient ECs ([1]; FIG. 2A)	correlation of gene expression of treated N1^+/− ECs with WT ECs ([1]; FIG. 2B)	restorative effect on regulatory nodes SOX7 and TCF4 ([1]; FIG. 2D)
CCN1/C(=C/C(C)=O)Sc2ccc(OC)cc21 [TG003, (Z)-1-(3-ethyl-5-methoxy-2,3-dihydrobenzothiazol-2-ylidene)propan-2-one]	broadly effective at repressing these genes, albeit to a lesser degree	strongest repressive effect	strong restorative effect	cluster with WT ECs	classified as WT			
COc1cc(/C=C(\C#N)C(=O)Nc2nnc(C(F)(F)F)s2)ccc1OCc1ccc(C(F)(F)F)cc1C(F)(F)F [XCT790, 2E-3-(4-{[2,4-bis(trifluoromethyl)benzyl]oxy}-3-methoxyphenyl)-2-cyano-N-[5-(trifluoromethyl)-1,3,4-thiadiazol-2-yl]acrylamide]	most effective at repressing genes aberrantly activated in N1-haploinsufficient ECs	strongest repressive effect	most effective at restoring both aberrantly activated and repressed genes; also recorded: corrected the greatest number of genes to the greatest degree; also recorded: strongest restorative effect on central regions of the network	cluster with WT ECs	classified as WT	effectively restored the transcription of mesoderm and cell cycle checkpoint genes	correlated most strongly; also recorded: correlate most strongly with WT ECs	strongest restorative effect
